Counter-ions that a name gives are not always drawn. Like-named read-outs stand apart in the source and are kept apart here.
How the values were obtained:
aconitine arrhythmia = experiment: prevention of aconitine arrhythmia in rats and dogs; type: in vivo
Method: The atrioventricular arrhythmia caused by aconitine is one of the most reliable models for forecasting the efficiency of the antiarrhythmic action of the novel preparation in clinics. The experiments were conducted on both narcotized and non-narcotized animals. The preparation was administered per os, intramuscularly, intraperitoneally and intravenously 5 to 15 minutes prior to or 3-5 minutes after the administration of aconitine.
(§1) The duration of the antiarrhythmic action of the preparation was studied on rats intravenously administered with aconitine 1, 2, 4, 6, 24 and 48 hours after the preparation administration per os.

[1] = test system: lethal fibrillation of the heart induced by aconitine; experiment: prevention of lethal fibrillation of the heart induced by aconitine in rats; type: in vivo; conditions: 0.5 and 1 mg/kg
[2] = effect on arterial pressure and breathing in narcotized cats and dogs; type: in vivo; conditions: intravenous, 0.05, 0.1, 0.5, 1 mg/kg
Text: With the view to evaluate the effect of the preparation according to the present invention on arterial pressure and breathing, experiments have been carried out on narcotized cats and dogs.

cardiac contractions = experiment: strength of cardiac contractions in narcotized rats and guinea pigs; type: in vivo; conditions: intravenous, 0.1, 0.5, 1, 2 mg/kg
Method: To find out a negative inotropic effect on the heart tissue, two series of experiments have been carried out:
(2) the study of the preparation according to the present invention on the strength of cardiac contractions on narcotized (sodium ethaminal, 50-60 mg/kg intraperitoneally) rats and guinea pigs.

[3] = test system: cardiac conductive system; type: in vivo, narcotized rats, cats, intact rabbits and dogs
Text: To investigate the character of the effect produced on the functions of the cardiac conductive system by the preparation according to the present invention, the ECG changes appearing in narcotized rats, cats, intact rabbits and dogs under the action of the preparation of this invention were studied. […] The effect of the preparation is retained for a long time.

[4] = test system: coronary blood circulation; experiment: volume rate of the coronary blood flow in cats; type: in vivo
Method: The effect of the pharmaceutical composition according to the present invention on the coronary blood circulation was studied in acute experiments on cats by the method of recording of the volume rate of the coronary blood flow. […] The introduction of 1 mg/kg of the preparation results in an increased volume rate of the coronary blood flow by 30-80% during a long time.

[5] = test system: calcium channels of the membrane of neurons; experiment: ion currents through the somatic membrane of mollusc neurons: calcium channels; type: cell-based, mollusca
Text: The study of the effect produced by the preparation of the present invention on ion currents through the somatic membrane of neurons has shown that it selectively interacts with calcium and potassium channels of the membrane of neurons of mollusca, whereby the currents along these channels are suppressed.

[6] = local anesthetic effect in intact rabbits; type: in vivo
Method: (§2) The local anesthetic effect of the preparation was studied on 14 intact rabbits. […] The results of the experiments on determination of the ability of the preparation to cause infiltration anesthesia have shown that 10-15 minutes after intracutaneous administration, to rabbits, of 0.01-0.05% and 0.1% solutions of the preparation anesthesia occurs which is characterized by an increased threshold of a pain irritation; the duration of the effect is 20 to 48 hours. Under the same conditions of the experiment, the local anesthetic effect of a 0.5% solution of novocaine lasts for 90 minutes on the average.

[7] = infiltration anesthesia in rabbits (intracutaneous); type: in vivo; conditions: 0.01-0.05% and 0.1% solutions
Method: as §2

[8] = test system: central adreno- and cholinergic processes; experiment: central effects (sedative, adreno-, cholinergic, serotonin); conditions: in vivo
lethal dose in dogs = type: in vivo; conditions: intravenous
Method: (§3) The resorptive effect and toxicity of the preparation according to the present invention were studied on mice, rats, rabbits and dogs.
(§4) In doses of 5-6 mg/kg intravenously the preparation according to the present invention causes death of dogs and in doses of 3-4 mg/kg it is lethal for rabbits.

lethal dose in rabbits = type: in vivo
Method: as §3, §4

[9] = diuresis and urine of rats; type: in vivo; conditions: 0.5-1 mg/kg
allergenic effect = type: in vivo; conditions: 12 guinea pigs and 6 rabbits
[10] = sugar, protein and enzymes in rats' blood; type: in vivo; conditions: 1 mg/kg, single and lasting administration
[11] = 6-month histological toxicity, dogs; type: in vivo; conditions: per os, 1 and 5 mg/kg, 6 months
[12] = 6-month histological toxicity, rabbits; type: in vivo; conditions: intravenous, 0.1 and 0.5 mg/kg, 6 months
[13] = teratogenicity in pregnant rats; type: in vivo; conditions: 317 pregnant rats, 2,377 feti
[14] = test system: cardiac rhythm disturbances; experiment: clinical study in patients with cardiac rhythm disturbances; type: in vivo, human
Method: The clinical study of the preparation according to the present invention was carried out on 200 patients suffering from various diseases accompanied by different cardiac rhythm disturbances (ischemic heart disease, diverse kinds of cardiomyopathy). The preparation was administered intravenously using 1-2 ampoules (0.5% solution of the preparation, 2 ml) and per os in tablets of 50 mg each (2-3 tablets a day during the first 2 days and 1-2 tablets a day during all following days). ECG characteristics, arterial pressure, heart beat rate and various parameters of hemodynamics were recorded.

[15] = duration of antiarrhythmic effect compared with quinidine and novocainamide; conditions: in vivo
Method: as §1

[16] = pharmacological effects, summary; conditions: in vivo

## CCN1CC2(OC(=O)c3ccccc3NC(C)=O)CCC(OC)C34C1C(CC23)C1(O)CC(OC)C2CC4C1(O)C2OC (stereo not shown) [lappaconitine hydrobromide]
Aconitine arrhythmia; aconitine model
  duration of antiarrhythmic action: up to 24 hours
Aconitine arrhythmia; intravenous, 0.2-0.3 mg/kg, narcotized rats and dogs
  animals in which development of aconitine arrhythmia is fully prevented: 100%
Aconitine arrhythmia; peroral, 1-2 mg/kg, dogs and intact rats
  animals in which development of aconitine arrhythmia is fully prevented: 100%
[1]
  prevention of lethal fibrillation of the heart: fully prevents a lethal fibrillation of the heart
[2]
  influence on arterial pressure and breathing: did not exert any influence on the arterial pressure and breathing
Cardiac contractions
  influence on amplitude of cardiac contractions: no influence on the amplitude of cardiac contractions
[3]; 1-2 mg/kg
  effect on ECG: increase the ranges PQ, QRS, QT, insignificantly R-R; the ripple S is deepened, the amplitude of the ripple T is uniformly increased
[3]; in vivo
  effect on myocardial conductivity and sinus node automatism: lowers conductivity of the myocardium and, to a lesser extent, automatism of the sinus node
[3]; intravenous
  sublethal and lethal doses: 4 to 6 mg/kg
[3]; intravenous, 0.5 mg/kg
  effect on ECG: deceleration of the atrioventricular conductivity and a certain rarification of the rhythm
[3]; intravenous, 4-6 mg/kg
  effect on ECG: growing inhibition of conductivity along the cardiac conducting system
[3]; rats, intravenous, 0.05 to 0.25 mg/kg
  effect on ECG: does not cause in rats any substantial effect on the ECG
[4]; 0.5 mg/kg
  animals with increased coronary blood flow: 40%
[4]; 0.5 mg/kg, in 40% of the animals
  increase of coronary blood flow: 15-30%
[4]; 1 mg/kg, during a long time
  increase of volume rate of coronary blood flow: 30-80%
[4]; intravenous, 0.1 mg/kg
  effect on coronary blood flow: does not provide any effect
[5]
  effect on currents along calcium channels: suppressed
[6]; 14 intact rabbits
  anesthetic activity relative to tetracaine hydrochloride: matches tetracaine hydrochloride in its anesthetic activity
[6]; rabbit, in vivo
  depth of anesthesia relative to tetracaine hydrochloride: inferior to tetracaine hydrochloride
  duration of anesthetic effect relative to tetracaine hydrochloride: more than 6 times
[7]
  duration of infiltration anesthesia: 20 to 48 h
[7]; intracutaneous
  onset of infiltration anesthesia: 10 to 15 min
[8]
  central sedative effect: weak central sedative effect
  effect on central adreno- and cholinergic processes: does not provide any substantial effect on central adreno- and cholinergic processes
  serotonin-negative effect: weak
Lethal dose in dogs
  lethal dose: 5 to 6 mg/kg
Lethal dose in rabbits
  lethal dose: 3 to 4 mg/kg
[9]
  effect on diuresis: no effect on diuresis of rats
[9]; sulphanylic acid test and benzidine test
  protein and blood in urine: not detected
Allergenic effect
  allergenic effect: no allergenic effect
[10]
  content of sugar, protein and enzymes in blood: does not result in substantial changes
[11]
  destructive changes of inner organs and tissues: no destructive changes on the part of inner organs and tissues
[12]
  destructive changes of inner organs and tissues: no destructive changes on the part of inner organs and tissues
[13]
  teratogenicity: not a potentially teratogenic substance
[14]; course treatment
  efficiency by form: more efficient for course treatment in tabletted forms
[14]; human, in vivo
  contraindications: No contraindications
[14]; patients
  side effects (hypotension, changed heart beat rate, pulse, breathing): not observed
[14]; patients with stable form of ventricular and supraventricular extrasystole
  antiarrhythmic effect in patients: pronounced antiarrhythmic effect
[14]; per os, intramuscular or intravenous
  side effects in some cases: weakness or giddeness
[14]; weakness or giddeness
  time after which side effects pass: 10 to 15 min
[15]
  duration of effect relative to quinidine and novocainamide: 10 times
[16]
  moderate additional effects: moderate coronarydilating, spasmolytic, local anesthetic, anti-inflammatory and sedative effects
  reduction of systemic arterial pressure and negative inotropic effect: not accompanied by reduction of the systemic arterial pressure, and a negative inotropic effect on the cardiac tissue

From patent publication US4656178A (priority 1985, dated 1987)
